Measured values: ChEMBL document CHEMBL4152365, “Discovery of DS-6930, a potent selective PPARγ modulator. Part I: Lead identification” (Bioorg Med Chem, 2018)
pEC50: −log10 of the molar value. In brackets after ≈: the same amount, converted by molar mass. Activity calls are given as the source filed them. The rule behind the calls is not given here.

How the values were obtained:
[1] = system: Mus musculus; assay: Toxicity in hyperglycemic KK/Ta mouse assessed as body weight gain at 30 mg/kg/day, po administered through diet for 3 days relative to control; assay type: organism-based; conditions: in vivo, 72 h
[2] = Plasma concentration in hyperglycemic KK/Ta mouse at 30 mg/kg/day, po administered through diet for 3 days measured on day 3 post last dose; assay type: ADME, organism-based
[3] = Clearance in cynomolgus monkey at 1 mg/kg, iv by LC-MS/MS analysis; assay type: ADME, organism-based, Macaca fascicularis; conditions: in vivo
[4] = Metabolic stability in cynomolgus monkey liver microsomes after 0.5 hrs; assay type: ADME, Macaca fascicularis, microsome; conditions: read-out: Stability
[5] = Cmax in cynomolgus monkey at 3 mg/kg, po by LC-MS/MS analysis; assay type: ADME, organism-based, Macaca fascicularis; set-up: dose 3 mg/kg, route oral; conditions: in vivo
[6] = target: T1, Peroxisome proliferator-activated receptor alpha (Homo sapiens) (UniProt Q07869); assay: Agonist activity at recombinant human GAL4-DBD fused PPARalpha LBD expressed in COS7 cells at 10 uM after 24 hrs by luciferase reporter gene assay relative to 2-(4-tert-Butylphenoxy)-3-[4-[2-[(4-pyridin-2-ylbenzoyl)amino]ethoxy]; assay type: cell-based
T1 sequence (whole entry): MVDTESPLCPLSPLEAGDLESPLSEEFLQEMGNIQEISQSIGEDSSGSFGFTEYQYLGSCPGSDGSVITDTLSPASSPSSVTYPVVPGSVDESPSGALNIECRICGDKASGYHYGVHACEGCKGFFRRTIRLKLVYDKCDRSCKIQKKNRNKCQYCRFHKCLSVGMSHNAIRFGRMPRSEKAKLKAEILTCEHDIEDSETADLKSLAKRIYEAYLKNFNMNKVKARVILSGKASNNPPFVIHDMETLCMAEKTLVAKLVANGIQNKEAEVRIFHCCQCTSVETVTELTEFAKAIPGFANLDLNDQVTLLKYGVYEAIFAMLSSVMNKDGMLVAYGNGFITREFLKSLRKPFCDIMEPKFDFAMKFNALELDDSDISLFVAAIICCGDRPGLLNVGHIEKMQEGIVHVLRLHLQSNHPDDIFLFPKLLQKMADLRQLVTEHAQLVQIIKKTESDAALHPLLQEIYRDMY

[7] = 1-octanol/PBS distribution co-efficient, log D of the compound at […] at pH 7.4 after 30 mins by HPLC-MS/MS analysis; assay type: physicochemical
[8] = target: T2, Peroxisome proliferator-activated receptor alpha (Homo sapiens, UniProt Q07869); assay: Agonist activity at recombinant human GAL4-DBD fused PPARalpha LBD expressed in COS7 cells after 24 hrs by luciferase reporter gene assay; assay type: cell-based
T2 sequence (Q07869 whole entry): T1 sequence (whole entry)

[9] = system: Mus musculus; assay: Glucose-lowering effect in hyperglycemic KK/Ta mouse assessed as reduction in plasma glucose level at 30 mg/kg/day, po administered through diet for 3 days relative to control; assay type: functional; set-up: scale not given: the % may be the effect or the level left
[10] = target: T3, Peroxisome proliferator-activated receptor gamma (Homo sapiens, UniProt P37231); assay: Agonist activity at recombinant human GAL4-DBD fused PPARgamma LBD expressed in COS7 cells after 24 hrs by luciferase reporter gene assay; assay type: cell-based
T3 sequence (P37231 whole entry): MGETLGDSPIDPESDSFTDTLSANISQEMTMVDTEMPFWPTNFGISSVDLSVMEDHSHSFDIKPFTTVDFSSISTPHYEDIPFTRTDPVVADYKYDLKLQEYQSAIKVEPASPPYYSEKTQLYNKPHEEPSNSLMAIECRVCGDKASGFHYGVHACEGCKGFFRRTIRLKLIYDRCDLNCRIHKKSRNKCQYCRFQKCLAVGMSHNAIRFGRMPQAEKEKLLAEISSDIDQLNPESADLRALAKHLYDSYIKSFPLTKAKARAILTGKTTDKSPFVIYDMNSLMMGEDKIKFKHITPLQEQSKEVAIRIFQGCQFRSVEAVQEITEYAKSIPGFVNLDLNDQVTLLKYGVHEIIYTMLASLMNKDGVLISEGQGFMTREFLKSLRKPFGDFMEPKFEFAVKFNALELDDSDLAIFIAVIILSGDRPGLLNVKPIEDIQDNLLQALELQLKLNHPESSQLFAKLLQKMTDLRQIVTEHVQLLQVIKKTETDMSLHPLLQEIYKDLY

[11] = system: Rattus norvegicus; assay: Glucose-lowering effect in Zucker diabetic fatty rat assessed as reduction in plasma glucose level at 3 mg/kg, po administered once daily for 14 days measured on day 14 post last dose relative to control; assay type: functional; set-up: scale not given: the % may be the effect or the level left
[12] = Aqueous thermodynamic solubility of the compound in pH 6.8 solution up to 4 hrs by HPLC-UV analysis; assay type: physicochemical; conditions: read-out: Therm_solubility
[13] = AUClast in cynomolgus monkey at 3 mg/kg, po by LC-MS/MS analysis; assay type: ADME, organism-based, Macaca fascicularis; set-up: dose 3 mg/kg, route oral, time 0 - last; conditions: in vivo
[14] = Tmax in cynomolgus monkey at 3 mg/kg, po by LC-MS/MS analysis; assay type: ADME, organism-based, Macaca fascicularis; conditions: in vivo
[15] = Metabolic stability in rat liver microsomes after 0.5 hrs; assay type: ADME, microsome; conditions: read-out: Stability
[16] = Volume of distribution at steady state in cynomolgus monkey at 1 mg/kg, iv by LC-MS/MS analysis; assay type: ADME, organism-based, Macaca fascicularis; conditions: in vivo, read-out: Vdss
[17] = system: Rattus norvegicus; assay: Toxicity in Zucker diabetic fatty rat assessed as body weight gain at 3 mg/kg, po administered once daily for 14 days relative to control; assay type: organism-based; conditions: in vivo, 336 h
[18] = Oral bioavailability in cynomolgus monkey at 3 mg/kg by LC-MS/MS analysis; assay type: ADME, organism-based, Macaca fascicularis; conditions: in vivo
[19] = target: T4, Peroxisome proliferator-activated receptor gamma (Homo sapiens) (UniProt P37231); assay: Agonist activity at recombinant human GAL4-DBD fused PPARgamma LBD expressed in COS7 cells at 10 uM after 24 hrs by luciferase reporter gene assay relative to rosiglitazone; assay type: cell-based
T4 sequence (whole entry): T3 sequence (P37231 whole entry)

[20] = AUC (0 to 24 hrs) in Zucker diabetic fatty rat at 3 mg/kg, po dosed once daily for 14 days and followed by additional administeration on day 15; assay type: ADME, organism-based; set-up: dose 3 mg/kg, time < 24 hr, route oral; conditions: in vivo
[21] = Cmax in Zucker diabetic fatty rat at 3 mg/kg, po dosed once daily for 14 days and followed by additional administeration on day 15; assay type: ADME, organism-based; set-up: dose 3 mg/kg, route oral; conditions: in vivo
[22] = Half life in cynomolgus monkey at 3 mg/kg, po by LC-MS/MS analysis; assay type: ADME, organism-based, Macaca fascicularis; conditions: in vivo
[23] = Metabolic stability in human liver microsomes after 0.5 hrs; assay type: ADME, microsome; conditions: read-out: Stability
[24] = Tmax in Zucker diabetic fatty rat at 3 mg/kg, po dosed once daily for 14 days and followed by additional administeration on day 15; assay type: ADME, organism-based; conditions: in vivo
[25] = target: T5, Peroxisome proliferator-activated receptor delta (Homo sapiens) (UniProt Q03181); assay: Agonist activity at PPARdelta (unknown origin) at 10 uM
T5 sequence (whole entry): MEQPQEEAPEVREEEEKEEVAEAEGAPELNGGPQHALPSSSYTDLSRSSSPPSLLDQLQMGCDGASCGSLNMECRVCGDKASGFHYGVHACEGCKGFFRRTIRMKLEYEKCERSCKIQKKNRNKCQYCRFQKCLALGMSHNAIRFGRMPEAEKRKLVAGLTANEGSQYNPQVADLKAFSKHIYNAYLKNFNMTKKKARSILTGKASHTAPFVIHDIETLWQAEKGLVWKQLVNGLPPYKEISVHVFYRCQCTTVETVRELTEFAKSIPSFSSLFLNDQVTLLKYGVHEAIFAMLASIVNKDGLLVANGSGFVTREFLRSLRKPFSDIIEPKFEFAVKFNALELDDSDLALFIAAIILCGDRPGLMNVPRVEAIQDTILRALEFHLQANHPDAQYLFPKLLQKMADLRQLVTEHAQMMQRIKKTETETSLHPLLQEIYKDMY

[26] = system: Rattus norvegicus; assay: Toxicity in Wistar-Imamichi rat assessed as clinical abnormality at 30 to 300 mg/kg, po administered via gavage once daily for 28 days; assay type: organism-based; conditions: in vivo, 672 h
[27] = system: Rattus norvegicus; assay: Toxicity in Wistar-Imamichi rat assessed as reduction in RBC count at 300 mg/kg, po administered via gavage once daily for 28 days relative to control; assay type: organism-based; set-up: scale not given: the % may be the effect or the level left; conditions: in vivo, 672 h
[28] = system: Rattus norvegicus; assay: Toxicity in Wistar-Imamichi rat assessed as effect on hemodilution by measuring increase in heart weight at 100 mg/kg, po administered via gavage once daily for 28 days; assay type: organism-based; conditions: in vivo, 672 h
[29] = system: Rattus norvegicus; assay: Toxicity in Wistar-Imamichi rat assessed as effect on hemodilution by measuring increase in heart weight at 30 to 300 mg/kg, po administered via gavage once daily for 28 days; assay type: organism-based; conditions: in vivo, 672 h
[30] = system: Rattus norvegicus; assay: Toxicity in Wistar-Imamichi rat assessed as reduction in RBC count at 30 mg/kg, po administered via gavage once daily for 28 days relative to control; assay type: organism-based; set-up: scale not given: the % may be the effect or the level left; conditions: in vivo, 672 h
[31] = system: Rattus norvegicus; assay: Toxicity in Wistar-Imamichi rat assessed as death at 30 to 300 mg/kg, po administered via gavage once daily for 28 days; assay type: organism-based; conditions: in vivo, 672 h
[32] = system: Rattus norvegicus; assay: Toxicity in Wistar-Imamichi rat assessed as reduction in RBC count at 30 to 300 mg/kg, po administered via gavage once daily for 28 days; assay type: organism-based; conditions: in vivo, 672 h
[33] = system: Rattus norvegicus; assay: Toxicity in Wistar-Imamichi rat assessed as reduction in RBC count at 100 mg/kg, po administered via gavage once daily for 28 days relative to control; assay type: organism-based; set-up: scale not given: the % may be the effect or the level left; conditions: in vivo, 672 h
[34] = system: Rattus norvegicus; assay: Toxicity in Wistar-Imamichi rat assessed as elevation in AST activity at 30 to 300 mg/kg, po administered via gavage once daily for 28 days; assay type: organism-based; conditions: in vivo, 672 h
[35] = system: Rattus norvegicus; assay: Toxicity in Wistar-Imamichi rat assessed as elevation in ALT activity at 30 to 300 mg/kg, po administered via gavage once daily for 28 days; assay type: organism-based; conditions: in vivo, 672 h

Row | Structure (SMILES) | Activity [1] [%] | concentration at 72 h [2] [ng/mL] | clearance [3] [mL/min/kg] | remaining at 0.5 h [4] [%] | Cmax [5] [ng/mL] | Emax [6] [%] | logD at 0.5 h [7] | pEC50 [8] | Activity [9] [%] | pEC50 [10] | Activity [11] [%] | solubility thermodynamic at 4 h [12] [µg/mL] | AUC(0-t) [13] [ng·h/mL] | Tmax [14] [h] | remaining at 0.5 h [15] [%] | Vd [16] [L/kg] | Activity [17] [%] | bioavailability [18] [%] | Emax [19] [%] | AUC at 24 h [20] [ng·h/mL] | also measured
1 | Cc1ccc(Oc2ccc3nc(COc4cccc(C(=O)O)c4)n(C)c3c2)c(F)c1 | 2.5 | 550 | 4.16 | 100 | 330 | 16 | 2.3 | < 5.00 | 53.4 | 7.04 | 61.7 | 0.5 (≈ 1.23 µM) | 2870 | 1.5 | 98 | 1.23 | 8.5 | 24 | 90 | 3160 | Cmax [21]: 300 ng/mL; half-life [22]: 16.1 h; remaining at 0.5 h [23]: 92%; Tmax [24]: 2.4 h
2 | Cc1ccc(Oc2ccc3nc(COc4cccc(C(=O)O)c4)n(C)c3c2)cc1F | 4.2 | 470 | 1.8 | 91 | 2060 | 40 | 2.7 | < 5.00 | 56.8 | 8.36 | 59.3 | 4.4 (≈ 10.8 µM) | 8440 | 1.5 | 100 | 0.32 | 13.8 | 28 | 80 | 5530 | Cmax [21]: 790 ng/mL; half-life [22]: 13.8 h; remaining at 0.5 h [23]: 91%; Tmax [24]: 2 h
3 | Cc1ccc(Oc2ccc3nc(COc4cccc(C(=O)O)c4)n(C)c3c2)cc1 | 4.8 | 510 | 3.58 | 100 | 1020 | 28 | 2.4 | < 5.00 | 48.4 | 7.40 | 58.6 | 7.9 (≈ 20.3 µM) | 4870 | 1 | 100 | 0.56 | 13 | 34 | 73 | 7100 | Activity [25]: inactive; Cmax [21]: 1110 ng/mL; half-life [22]: 10.4 h; remaining at 0.5 h [23]: 91%; Tmax [24]: 2 h
4 | CN(CCOc1ccc(CC2SC(=O)NC2=O)cc1)c1ccccn1 (stereo not given) [ROSIGLITAZONE] |  |  |  |  |  |  |  |  |  |  | 40.3 |  |  |  |  |  | 12.6 |  |  |  | Activity [26]: Non-Toxic; Activity [27]: 14.2%; Activity [28]: 24.7%; Activity [29]: Toxic; Activity [30]: 5.9%; Activity [31]: Non-Toxic; Activity [32]: Dose-dependent effect; Activity [33]: 8.9%; Activity [34]: Non-Toxic; Activity [35]: Non-Toxic
